# Publication PMC2586070 (Peptides, 2008)
# Where no end group is shown, it is not given here.
# Tested on: blood-brain barrier (BBB)
# Type: in vivo, male CD-1 mice
compound,measurement,setting,value
triolein,enhancement of I-Ghr transport across the BBB,"triolein 7.2 mg/mouse iv with I-Ghr, 8 week old mice",over 70%
"I-Ghr: Human ghrelin radioactively labeled with 131I by the chloramine-T method, purified by reverse-phase HPLC (GSSFLSPEHQRVQQRKESKKPPAKLQPR; ends and bridges not checked; also: 131I radiolabel, site not given here; UniProt Q9UBU3 24-51, looked up)",effect of 48 h fasting on Ki of I-Ghr vs fed animals,"mouse, in vivo, iv",arithmetic increase
CNC[C@H](O)c1ccc(O)c(O)c1 [Epinephrine],effect on I-Ghr uptake across the BBB,"epinephrine 40 nmol/mouse in the iv injection, 8 week old mice",no effect
